# Laboratory results reported in ChEMBL document CHEMBL3886401, “Disubstituted benzothienyl-pyrrolotriazines and uses thereof” (2015).
# Assays:
# [1] = biological target: Fibroblast growth factor receptor 3 (Homo sapiens, UniProt P22607); experiment: Kinase Assay: For the assay, 50 nl of each stock solution of the test compound in DMSO was pipetted into a black, low-volume 384-well microtiter plate (Greiner Bio-One, Frickenhausen, Germany) 2 ul of a solution of the above FGFR-3 fusion protein in aqueous assay buffer [8 mM MOPS pH 7.0, 10 mM magnesium acetate, 1.0 mM dithiothreitol, 0.05% (w/v) bovine serum albumin (BSA), 0.07% (v/v) Tween-20 …
# Sequence of Fibroblast growth factor receptor 3 (P22607 whole entry, the tested form may be a part): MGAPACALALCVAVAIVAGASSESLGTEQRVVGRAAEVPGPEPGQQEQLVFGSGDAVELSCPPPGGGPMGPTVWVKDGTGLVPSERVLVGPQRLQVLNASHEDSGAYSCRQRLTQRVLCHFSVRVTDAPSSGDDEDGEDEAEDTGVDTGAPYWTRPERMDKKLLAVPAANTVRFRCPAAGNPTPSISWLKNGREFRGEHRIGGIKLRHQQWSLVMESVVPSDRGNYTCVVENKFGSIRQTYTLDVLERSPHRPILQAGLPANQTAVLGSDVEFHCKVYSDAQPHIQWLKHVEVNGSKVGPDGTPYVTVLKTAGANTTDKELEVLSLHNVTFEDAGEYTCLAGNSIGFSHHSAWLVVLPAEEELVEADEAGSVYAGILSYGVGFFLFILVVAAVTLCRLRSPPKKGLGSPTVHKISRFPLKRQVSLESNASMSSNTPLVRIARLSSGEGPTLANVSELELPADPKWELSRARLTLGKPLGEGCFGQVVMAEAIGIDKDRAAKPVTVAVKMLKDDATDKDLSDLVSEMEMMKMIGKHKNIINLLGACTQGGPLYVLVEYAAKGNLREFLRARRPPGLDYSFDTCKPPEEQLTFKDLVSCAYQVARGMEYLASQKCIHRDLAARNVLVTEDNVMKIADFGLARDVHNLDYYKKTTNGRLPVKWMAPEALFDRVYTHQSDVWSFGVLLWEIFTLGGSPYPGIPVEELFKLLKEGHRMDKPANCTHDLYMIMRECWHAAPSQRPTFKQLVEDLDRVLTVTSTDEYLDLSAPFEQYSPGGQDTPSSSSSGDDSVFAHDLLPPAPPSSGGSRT
# [2] = biological target: Fibroblast growth factor receptor 1 (Homo sapiens, UniProt P11362); experiment: High ATP Kinase Assay: For the assay, 50 nl of each stock solution of the test compound in DMSO was pipetted into a black, low-volume 384-well microtiter plate (Greiner Bio-One, Frickenhausen, Germany) 2 Î¼l of a solution of the above FGFR-1 fusion protein in aqueous assay buffer [8 mM MOPS pH 7.0, 10 mM magnesium acetate, 1.0 mM dithiothreitol, 0.05% (w/v) bovine serum albumin (BSA), 0.07% (v/v) …
# Sequence of Fibroblast growth factor receptor 1 (P11362 whole entry, the tested form may be a part): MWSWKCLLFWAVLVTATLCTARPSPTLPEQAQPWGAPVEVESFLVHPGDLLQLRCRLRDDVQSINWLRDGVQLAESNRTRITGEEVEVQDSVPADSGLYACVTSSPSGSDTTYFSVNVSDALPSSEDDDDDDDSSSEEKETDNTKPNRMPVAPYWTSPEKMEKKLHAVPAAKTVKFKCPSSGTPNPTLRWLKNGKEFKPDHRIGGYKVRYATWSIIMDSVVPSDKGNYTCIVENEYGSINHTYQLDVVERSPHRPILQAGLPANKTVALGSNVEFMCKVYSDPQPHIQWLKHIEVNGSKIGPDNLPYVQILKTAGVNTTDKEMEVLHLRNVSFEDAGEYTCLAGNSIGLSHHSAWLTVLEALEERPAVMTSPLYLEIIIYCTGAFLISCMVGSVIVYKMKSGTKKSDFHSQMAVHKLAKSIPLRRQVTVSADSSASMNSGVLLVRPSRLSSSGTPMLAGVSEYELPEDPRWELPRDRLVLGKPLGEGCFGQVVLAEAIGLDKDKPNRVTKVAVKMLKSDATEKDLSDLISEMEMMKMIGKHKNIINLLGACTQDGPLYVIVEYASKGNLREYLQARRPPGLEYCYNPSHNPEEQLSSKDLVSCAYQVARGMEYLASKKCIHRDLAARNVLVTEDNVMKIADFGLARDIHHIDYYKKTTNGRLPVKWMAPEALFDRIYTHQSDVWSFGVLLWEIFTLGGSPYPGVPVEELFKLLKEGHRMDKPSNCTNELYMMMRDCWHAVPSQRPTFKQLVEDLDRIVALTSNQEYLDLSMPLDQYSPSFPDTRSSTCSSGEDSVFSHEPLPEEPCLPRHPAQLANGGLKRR
IC50 [1],IC50 [2],SMILES
,3.9 nM,COCc1c(CN2CCNC(=O)C2)c(-c2cc3cc(C)cc(OC)c3s2)c2c(N)ncnn12
,8 nM,CCOCc1c(CN2CCNC(=O)C2)c(-c2cc3cc(C)cc(OC)c3s2)c2c(N)ncnn12

# Second part, the molecule before the results:
SMILES,IC50 [1],IC50 [2]
COCc1c(-c2cc3cc(C)cc(OC)c3s2)c2c(N)ncnn2c1C#N,58.1 nM,55.3 nM
COc1cc(C)cc2cc(-c3c(CNC(C)=O)c(CNC(C)=O)n4ncnc(N)c34)sc12,0.7 nM,1.4 nM
CCOCc1c(-c2cc3cc(C)cc(OC)c3s2)c2c(N)ncnn2c1C#N,,39.1 nM
